Reference: patent US20240158394A1, “NEK7 INHIBITORS” (Halia Therapeutics, Inc., priority 2022, published 2024)

Experiments:
[1] = target: full-length recombinant human NEK7 (Homo sapiens (Human), UniProt Q8TDX7); experiment: NEK7 Enzymatic Assay; format: biochemical; settings: casein substrate, [33P]-ATP, 2 hours at room temperature
Outline: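 GST-tagged full-length human NEK7 (Sf9-expressed) with 1 mg/mL casein in HEPES pH 7.5/MgCl2 buffer, 1% DMSO; compounds 10 μM–0.5 nM preincubated 20 min at RT. Reaction started with [^33P]-ATP, 2 h at RT, P81 filter radioactivity read; IC50 from % activity remaining versus vehicle.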

[2] = system: IL-1β release; experiment: IL-1β Release Assay; format: cell-based; settings: Homo sapiens; PMA-treated THP-1 cells, 250 ng/mL LPS then 20 μM nigericin; cleaved IL-1β in media
Procedure: Approximately 1.5 million THP-1 cells were plated in each well of a 6-well TC plate and incubated with 40 nM PMA in RPMI (10% FBS, 1% Penstrep) for 24 hours. The media was then removed, and cells were rested in RPMI (10% FBS, 1% Penstrep) for 24 hours after which time the media was removed and cells were pre-treated for 2 hours with various concentrations of compounds of interest (typically serial 3-fold dilution in RPMI+5% FBS, concentrations ranging from 1 μM to 0.5 nM) in RPMI (5% FBS). The media was again removed, and cells were incubated with 250 ng/mL LPS and compounds of interest (concentrations as above) in RMPI (5% FBS) for 2 hours. The media was removed for a last time and cells were incubated with 20 μM nigericin and compounds of interest (concentrations as above) in Opti-MEM for 30 minutes. Cell media was then collected and the amount of cleaved IL-1β was determined using a JESS instrument (Protein Simple) and standard protocols. Cleaved Il-1β antibody was obtained from Cell Signaling (catalogue #83186S) and was used at 1:20 dilution in antibody diluent 2. Protein Simple 1× anti-Rabbit HRP secondary antibody was used along with Protein Simple luminol and peroxide for chemiluminescent detection. Primary antibody incubation time was increased from 30 minutes to 60 minutes.

Chain of full-length recombinant human NEK7 (Q8TDX7 whole entry): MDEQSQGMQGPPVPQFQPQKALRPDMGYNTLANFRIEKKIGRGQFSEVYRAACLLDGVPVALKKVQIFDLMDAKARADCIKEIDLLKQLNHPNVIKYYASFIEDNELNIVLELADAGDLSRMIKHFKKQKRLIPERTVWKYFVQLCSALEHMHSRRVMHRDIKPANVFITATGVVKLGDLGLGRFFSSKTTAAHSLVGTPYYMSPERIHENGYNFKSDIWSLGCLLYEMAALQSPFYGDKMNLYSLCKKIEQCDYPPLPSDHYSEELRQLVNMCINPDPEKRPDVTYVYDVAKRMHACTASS

SMILES	IC50 [1] [µM]	IC50 [2] [µM]
CN1CCN(Cc2ccc(NC(=O)Nc3ccc(-c4cn(C5CC5)c5ncnc(N)c45)c4ncoc34)cc2C(F)(F)F)CC1 [Example I-72, 1-(4-(4-amino-7-cyclopropyl-7H-pyrrolo[2,3-d]pyrimidin-5-yl)benzo[d]oxazol-7-yl)-3-(4-((4-methylpiperazin-1-yl)-methyl)-3-(trifluoromethyl)-phenyl)urea]	0.5 to 2	> 1
CN1CCN(Cc2ccc(NC(=O)Nc3ccc(-c4cn(C5CC5)c5ncnc(N)c45)c4cnoc34)cc2C(F)(F)F)CC1 [Example I-69, 1-(4-(4-amino-7-cyclopropyl-7H-pyrrolo[2,3-d]pyrimidin-5-yl)benzo[d]isoxazol-7-yl)-3-(4-((4-methylpiperazin-1-yl)methyl)-3-(trifluorometh-yl)phenyl)urea]	< 0.2	> 1
Nc1ncnc2c1c(-c1ccc(NC(=O)Nc3cc(C4(C(F)(F)F)CC4)no3)c3nccn13)cn2C1CC1 [Example I-22, 1-(5-(4-amino-7-cyclopropyl-7H-pyrrolo[2,3-d]pyrimidin-5-yl)imidazo[1,2-a]pyridin-8-yl)-3-(3-(1-(trifluoromethyl)-cyclopropyl)isoxazol-5-yl)-urea]	< 0.2	< 0.1
Nc1ncnc2c1c(-c1ccc(NC(=O)Nc3cc(C4(C(F)(F)F)CC4)on3)c3cnccc13)cn2C1CC1 [Example I-8, 1-(5-(4-amino-7-cyclopropyl-7H-pyrrolo[2,3-d]pyrimidin-5-yl)isoquinolin-8-yl)-3-(5-(1-(trifluoromethyl)cyclopropyl)-isoxazol-3-yl)urea]	< 0.2	0.1 to 0.25
CC(C)(C)c1cc(NC(=O)Nc2ccc(-c3cn(C4CC4)c4ncnc(N)c34)c3ccoc23)n(-c2ccccc2)n1 [Example I-62, 1-(4-(4-amino-7-cyclopropyl-7H-pyrrolo[2,3-d]pyrimidin-5-yl)benzofuran-7-yl)-3-(3-(tert-butyl)-1-phenyl-1H-pyrazol-5-yl)urea]	0.5 to 2	< 0.1
Nc1ncnc2c1c(-c1ccc(NC(=O)Nc3cc(C4(C(F)(F)F)CC4)on3)c3ncccc13)cn2C1CC1 [Example I-4, 1-(5-(4-amino-7-cyclopropyl-7H-pyrrolo[2,3-d]pyrimidin-5-yl)quinolin-8-yl)-3-(5-(1-(trifluoromethyl)cyclopropyl)-isoxazol-3-yl)urea]	> 2	> 1
CN1CCN(Cc2ccc(NC(=O)Nc3ccc(-c4cn(C5CC5)c5ncnc(N)c45)c4c3OCC4)cc2C(F)(F)F)CC1 [Example I-53, 1-(4-(4-amino-7-cyclopropyl-7H-pyrrolo[2,3-d]pyrimidin-5-yl)-2,3-dihydrobenzofuran-7-yl)-3-(4-((4-methylpiperazin-1-yl)methyl)-3-(trifluorometh-yl)phenyl)urea]	< 0.2	< 0.1
CC(C)(C)c1cc(NC(=O)Nc2ccc(-c3cn(C4CC4)c4ncnc(N)c34)c3ccoc23)on1 [Example I-63, 1-(4-(4-amino-7-cyclopropyl-7H-pyrrolo[2,3-d]pyrimidin-5-yl)benzofuran-7-yl)-3-(3-(tert-butyl)isoxazol-5-yl)urea]	0.5 to 2	0.25 to 1
Nc1ncnc2c1c(-c1ccc(NC(=O)Nc3cc(C4(C(F)(F)F)CC4)on3)c3c1CCO3)cn2C1CC1 [Example I-52, 1-(4-(4-amino-7-cyclopropyl-7H-pyrrolo[2,3-d]pyrimidin-5-yl)-2,3-dihydrobenzofuran-7-yl)-3-(5-(1-(trifluorometh-yl)cyclopropyl)isoxazol-3-yl)urea]	0.2 to 0.5	0.25 to 1
CN1CCN(Cc2ccc(NC(=O)Nc3ncc(-c4cn(C5CC5)c5ncnc(N)c45)n4ccnc34)cc2C(F)(F)F)CC1 [Example I-51, 1-(5-(4-amino-7-cyclopropyl-7H-pyrrolo[2,3-d]pyrimidin-5-yl)imidazo[1,2-a]pyrazin-8-yl)-3-(4-((4-methylpiperazin-1-yl)methyl)-3-(trifluorometh-yl)phenyl)urea]	> 2	> 1
CN1CCN(Cc2ccc(NC(=O)Nc3ccc(-c4cn(C5CC5)c5ncnc(N)c45)c4ccncc34)cc2C(F)(F)F)CC1 [Example I-9, 1-(5-(4-amino-7-cyclopropyl-7H-pyrrolo[2,3-d]pyrimidin-5-yl)isoquinolin-8-yl)-3-(4-((4-methylpiperazin-1-yl)-methyl)-3-(trifluoromethyl)-phenyl)urea]	< 0.2	< 0.1
CN1CCN(Cc2ccc(NC(=O)Nc3ccc(-c4cn(C5CC5)c5ncnc(N)c45)n4ccnc34)cc2C(F)(F)F)CC1 [Example I-34, 1-(5-(4-amino-7-cyclopropyl-7H-pyrrolo[2,3-d]pyrimidin-5-yl)imidazo[1,2-a]pyridin-8-yl)-3-(4-((4-methylpiperazin-1-yl)methyl)-3-(trifluorometh-yl)phenyl)urea]	< 0.2	< 0.1
CC(C)(C)c1cc(NC(=O)Nc2ccc(-c3cn(C4CC4)c4ncnc(N)c34)c3nonc23)on1 [Example I-74, 1-(7-(4-amino-7-cyclopropyl-7H-pyrrolo[2,3-d]pyrimidin-5-yl)benzo[c][1,2,5]oxadiazol-4-yl)-3-(3-(tert-butyl)isoxazol-5-yl)urea]	< 0.2	< 0.1
Nc1ncnc2c1c(-c1ccc(NC(=O)Nc3cc(C4(C(F)(F)F)CC4)on3)c3nonc13)cn2C1CC1 [Example I-77, 1-(7-(4-amino-7-cyclopropyl-7H-pyrrolo[2,3-d]pyrimidin-5-yl)benzo[c][1,2,5]oxadiazol-4-yl)-3-(5-(1-(trifluoromethyl)-cyclopropyl)isoxazol-3-yl)urea]	< 0.2	< 0.1
Nc1ncnc2c1c(-c1ccc(NC(=O)Nc3cc(C4(C(F)(F)F)CC4)on3)c3occc13)cn2C1CC1 [Example I-65, 1-(4-(4-amino-7-cyclopropyl-7H-pyrrolo[2,3-d]pyrimidin-5-yl)benzofuran-7-yl)-3-(5-(1-(trifluoromethyl)cyclopropyl)-isoxazol-3-yl)urea]	0.5 to 2	> 1
CN1CCN(Cc2ccc(NC(=O)Nc3ccc(-c4cn(C5CC5)c5ncnc(N)c45)c4ccoc34)cc2C(F)(F)F)CC1 [Example I-66, 1-(4-(4-amino-7-cyclopropyl-7H-pyrrolo[2,3-d]pyrimidin-5-yl)benzofuran-7-yl)-3-(4-((4-methylpiperazin-1-yl)-methyl)-3-(trifluoromethyl)-phenyl)urea]	0.2 to 0.5	< 0.1
CN1CCN(Cc2ccc(NC(=O)Nc3ccc(-c4cn(C5CC5)c5ncnc(N)c45)n4cc(C(F)(F)F)nc34)cc2C(F)(F)F)CC1 [Example I-47, 1-(5-(4-amino-7-cyclopropyl-7H-pyrrolo[2,3-d]pyrimidin-5-yl)-2-(trifluoromethyl)-imidazo[1,2-a]pyridin-8-yl)-3-(4-((4-methylpiperazin-1-yl)-methyl)-3-(trifluoromethyl)-phenyl)urea]	> 2	< 0.1
Nc1ncnc2c1c(-c1ccc(NC(=O)Nc3cc(C4(C(F)(F)F)CC4)on3)c3nccn13)cn2C1CC1 [Example I-32, 1-(5-(4-amino-7-cyclopropyl-7H-pyrrolo[2,3-d]pyrimidin-5-yl)imidazo[1,2-a]pyridin-8-yl)-3-(5-(1-(trifluoromethyl)-cyclopropyl)isoxazol-3-yl)-urea]	< 0.2	> 1
CC(C)(C)c1cc(NC(=O)Nc2ccc(-c3cn(C4CC4)c4ncnc(N)c34)n3ccnc23)n(-c2ccccc2)n1 [Example I-11, 1-(5-(4-amino-7-cyclopropyl-7H-pyrrolo[2,3-d]pyrimidin-5-yl)imidazo[1,2-a]pyridin-8-yl)-3-(3-(tert-butyl)-1-phenyl-1H-pyrazol-5-yl)urea]	< 0.2	< 0.1
Nc1ncnc2c1c(-c1ccc(NC(=O)Nc3cc(C4(C(F)(F)F)CC4)on3)c3oncc13)cn2C1CC1 [Example I-68, 1-(4-(4-amino-7-cyclopropyl-7H-pyrrolo[2,3-d]pyrimidin-5-yl)benzo[d]isoxazol-7-yl)-3-(5-(1-(trifluoromethyl)cyclo-propyl)isoxazol-3-yl)urea]	< 0.2	0.1 to 0.25
CN1CCC(Oc2ccc(NC(=O)Nc3ccc(-c4cn(C5CC5)c5ncnc(N)c45)n4ccnc34)cc2C(F)(F)F)CC1 [Example I-37, 1-(5-(4-amino-7-cyclopropyl-7H-pyrrolo[2,3-d]pyrimidin-5-yl)imidazo[1,2-a]pyridin-8-yl)-3-(4-((1-methylpiperidin-4-yl)oxy)-3-(trifluorometh-yl)phenyl)urea]	< 0.2	< 0.1
CN1CCC(Oc2ccc(NC(=O)Nc3ccc(-c4cn(C5CC5)c5ncnc(N)c45)c4nonc34)cc2C(F)(F)F)CC1 [Example I-79, 1-(7-(4-amino-7-cyclopropyl-7H-pyrrolo[2,3-d]pyrimidin-5-yl)benzo[c][1,2,5]oxadiazol-4-yl)-3-(4-((1-methylpiperidin-4-yl)oxy)-3-(trifluoromethyl)-phenyl)urea]	< 0.2	< 0.1
